Here are results for 1 compound from publication PMC9177597, “Structural basis of substrate recognition and translocation by human very long-chain fatty acid transporter ABCD1” (Nature Communications, 2022).

Substitutions are numbered along the chain they refer to.

Assay in all cases: substrate-stimulated ATPase assay (colorimetric Pi release)
Common to all, as to format: biochemical

The target in experiment [1] is T1, chABCD1 (chimeric ABCD1) (Homo sapiens, UniProt P33897, DEL694-745).
T1 construct: single polypeptide: N-terminal FLAG tag, PMP-4 residues 1-65 replacing human ABCD1 residues 1-63, then human ABCD1 64-745; HEK293F; homodimer; LMNG/CHS for assays, digitonin for cryo-EM; with PMP-4 (peroxisomal membrane protein related, ABCD1 homolog, Caenorhabditis elegans; N-terminal segment fused to the target chain)
T1 sequence (P33897 64-693): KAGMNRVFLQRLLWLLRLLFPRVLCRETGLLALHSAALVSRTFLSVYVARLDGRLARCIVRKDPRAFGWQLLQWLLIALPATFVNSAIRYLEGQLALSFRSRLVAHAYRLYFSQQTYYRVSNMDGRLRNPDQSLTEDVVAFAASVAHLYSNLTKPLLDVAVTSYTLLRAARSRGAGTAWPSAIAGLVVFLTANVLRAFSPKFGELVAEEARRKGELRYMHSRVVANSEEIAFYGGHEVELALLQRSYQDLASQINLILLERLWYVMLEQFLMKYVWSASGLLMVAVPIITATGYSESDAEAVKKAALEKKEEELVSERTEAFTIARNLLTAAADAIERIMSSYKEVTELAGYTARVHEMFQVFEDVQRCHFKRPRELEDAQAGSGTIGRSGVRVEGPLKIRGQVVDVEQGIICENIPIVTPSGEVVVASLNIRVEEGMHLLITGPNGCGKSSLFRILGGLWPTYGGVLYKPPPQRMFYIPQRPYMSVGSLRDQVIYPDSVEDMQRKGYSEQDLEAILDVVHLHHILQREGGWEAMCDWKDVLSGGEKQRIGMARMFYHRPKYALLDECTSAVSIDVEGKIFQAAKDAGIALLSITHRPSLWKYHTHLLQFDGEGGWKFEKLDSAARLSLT

The target of experiment [2] is T2, chABCD1 (chimeric ABCD1) (Homo sapiens, UniProt P33897).
T2 construct: single polypeptide: N-terminal FLAG tag, PMP-4 residues 1-65 replacing human ABCD1 residues 1-63, then human ABCD1 64-745; HEK293F; homodimer; LMNG/CHS for assays, digitonin for cryo-EM; with PMP-4 (peroxisomal membrane protein related, ABCD1 homolog, Caenorhabditis elegans; N-terminal segment fused to the target chain)
T2 sequence (P33897 64-745): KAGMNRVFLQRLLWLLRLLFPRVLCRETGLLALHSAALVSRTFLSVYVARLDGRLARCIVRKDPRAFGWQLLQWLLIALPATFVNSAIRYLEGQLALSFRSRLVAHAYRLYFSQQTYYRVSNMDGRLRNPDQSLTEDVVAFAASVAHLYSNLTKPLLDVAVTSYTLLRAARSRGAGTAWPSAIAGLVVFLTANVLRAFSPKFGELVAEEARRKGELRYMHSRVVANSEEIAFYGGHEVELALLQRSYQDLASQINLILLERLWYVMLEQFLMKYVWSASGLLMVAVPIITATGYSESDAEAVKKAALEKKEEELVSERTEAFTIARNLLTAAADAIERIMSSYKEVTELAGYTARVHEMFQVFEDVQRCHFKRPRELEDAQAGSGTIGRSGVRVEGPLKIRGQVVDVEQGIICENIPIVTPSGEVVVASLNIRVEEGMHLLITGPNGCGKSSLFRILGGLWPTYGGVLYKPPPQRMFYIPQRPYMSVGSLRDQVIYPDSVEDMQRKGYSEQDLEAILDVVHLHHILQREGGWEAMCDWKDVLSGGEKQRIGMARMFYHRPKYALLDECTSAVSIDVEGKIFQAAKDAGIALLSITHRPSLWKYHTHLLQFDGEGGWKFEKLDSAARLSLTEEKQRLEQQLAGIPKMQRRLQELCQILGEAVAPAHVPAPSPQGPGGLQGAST

Experiment [3] concerns the target T3, chABCD1 (chimeric ABCD1) (Homo sapiens, UniProt P33897, R104A).
T3 construct: single polypeptide: N-terminal FLAG tag, PMP-4 residues 1-65 replacing human ABCD1 residues 1-63, then human ABCD1 64-745; HEK293F; homodimer; LMNG/CHS for assays, digitonin for cryo-EM; with PMP-4 (peroxisomal membrane protein related, ABCD1 homolog, Caenorhabditis elegans; N-terminal segment fused to the target chain)
T3 sequence (P33897 64-745 R104A): T2 sequence (P33897 64-745) with R41A
The settings on record: 5 μM C22:0-CoA, 2 mM ATP, 2 mM MgCl2, LMNG + CHS, pH 7.5, 37 °C.

Usually EC50 stands for the midpoint of the concentration-response curve. For `CCCCCCCCCCCCCCCCCCCCCC(=O)SCCNC(=O)CCNC(=O)[C@H](O)C(C)(C)COP(=O)(O)OP(=O)(O)OC[C@H]1O[C@@H](n2cnc3c(N)ncnc32)[C@H](O)[C@@H]1OP(=O)(O)O` [C22:0-CoA], the results for the half-maximal effective concentration (EC50) in experiment [1] and in experiment [2] were ~4 µM and ~2 µM, respectively. Also, the “relative ATPase activity” value in experiment [3] was “displayed significantly decreased substrate-simulated ATPase activity, compared to the wild-type”.
